# Test results from patent US10722547B2, “Compositions of medicinal plants for reducing the effects of aging, prevention and treatment of age-related neurodegenerative diseases, and treatment of anxiety and sleep disorders” (PharmacoGenetics Limited, priority 2016, dated 2020).
# How the values were obtained:
# [1] = tested on: D-galactose treated mice; experiment: Loss of whiskers induced by D-galactose treatment; type: in vivo, male ICR mice; details: D-galactose 150 mg/kg daily with or without 120 mg/kg oral extract, 8 weeks; N=12 mice/group
# Protocol: Chronic exposure to D-galactose is a widely studied aging model that causes shortened lifespan in Drosophila and housefly (Jordens et al 1999; Cui et al 2004), and brings about spatial memory deficit, degeneration in the hippocampus and increased oxidative damage in a D-galactose-induced accelerated-aging model of the mouse (Cui et al 2006). […] In the present study, this D-galactose model was applied to 10 week old male ICR mice (n=8-12 per group). The mice were administered daily with 150 mg/kg D-galactose by subcutaneous injection, accompanied by either daily oral administration of the vehicle (0.9% NaCl) in the D-galactose treated control group (“D-gal”), or daily oral administration of one of the BYPA, BYP, BYA, BPA, YPA, BY, BP and YP herbal extracts (120 mg/kg), for an exposure period of 8 weeks. […] The resultant levels of accelerated aging in the D-gal group, the various herbal extract-treatment groups, and the Veh group were assessed at the end of the 8-week exposure period based on five criteria: (i) body weight; (ii) deficit in spatial memory in the Y-maze test; (iii) levels of the pro-inflammatory cytokine TNF-alpha in the brain; (iv) levels of the pro-inflammatory cytokine IL-6 in the brain; and (v) levels of the oxidative stress marker MDA in the brain. […]
# [2] = tested on: D-galactose treated animals; details: cited from earlier work
# [3] = tested on: mice; experiment: Locomotor activity test; type: in vivo, male ICR mice; details: 3 mg/kg diazepam oral; p<0.001 vs vehicle
# Protocol: Locomotor activity test. Following the elevated plus-maze and holeboard tests, the Veh-treated mice, DZ-treated mice and variously herbal extract-treated mice were assessed for locomotor activity by means of the ZIL-2 apparatus (Beijing Institute of Materia Medica). The test apparatus, with dimensions of 60 cm×60 cm×12 cm, consisted of a transparent plastic cylindrical box equipped with three evenly spaced infrared beams with photodetectors. The number of transitions made across the infrared beams was recorded automatically over a period of 5 minutes. An increase or decrease in the number of transitions indicated a corresponding increase or decrease in the level of locomotor activity (Hui et al, 2002).
# [4] = tested on: mice; experiment: Step-through passive avoidance test; type: in vivo, male ICR mice; details: diazepam at 1 or 3 mg/kg oral; p<0.001 vs vehicle
# Protocol: Step-through passive avoidance test. Mice randomly separated into groups (n=15−20/group) were orally administered with vehicle (“Veh”, viz. 0.9% NaCl), 1 or 3 mg/kg DZ, or 120 mg/kg of one of the one-, two-, three- or four-herb extracts 35 minutes prior to training trials. The apparatus consisted of a two-chamber box (from Chinese Academy of Chinese Medical Science, Beijing) with one of the chambers being opaque (darkened) and the other transparent (lighted). In the training trials, each mouse was placed into the lighted chamber, and the door connecting the lighted and darkened chambers was opened 10 seconds later. […] In the actual test, after the mouse entered the darkened chamber, the door was closed and a 2-second electric foot shock of 0.4 mA was delivered through the grid floor. Ten seconds later the mouse was transferred from the darkened chamber back to its home cage. After an interval of 24 hours, it was returned to the lighted chamber. The door to the darkened chamber was opened 10 seconds later, and the time taken for the mouse to enter the darkened chamber was recorded as the ‘step-through latency’, with cut-off set at 300 seconds. A significant decrease in step-through latency observed with any group of animals compared to Veh-treated controls was indicative of impaired […] in the form of anterograde amnesia (Nazari-Serenj eh et al, 2011).
# [5] = tested on: mice; experiment: Rotarod test; type: in vivo, male ICR mice; details: diazepam at 1 or 3 mg/kg oral; p<0.001 vs vehicle
# Protocol: Rotarod test. Mice randomly separated into groups (n=15−20/group) were orally administered 35 minutes prior to the rotarod test with vehicle (“Veh”, viz. 0.9% NaCl), 1 or 3 mg/kg DZ, or 120 mg/kg of one of the one-, two-, three- or four-herb extracts. The rotarod test for muscle coordination was performed using a custom-built apparatus consisted of a cylinder (2.5 cm diameter) with a textured surface placed 0.5 m above the ground. Prior to oral Veh, DZ or herbal extract administration, the mice were first trained to stay for 2 min on the rotarod revolving at 16 rpm. In the test, the effect of Veh, DZ or herbal extract treatment was examined by placing the mouse on the rotarod and recording the length of time it managed to stay on the rotarod, with cut-off set at 2 min.
smiles,measurement,setting,value
"O=C[C@H](O)[C@@H](O)[C@@H](O)[C@H](O)CO [D-gal, D-galactose]",Loss of whiskers (% mice) 0 (no loss of whiskers),[1],50 % mice
same,Loss of whiskers (% mice) + (loss of whiskers),[1],50 % mice
O=C(O)CCCC[C@@H]1CCSS1 [R-α-lipoic acid],cognitive dysfunction and neurodegeneration,"[2]; 100 mg/kg i.p., Cui 2006",can ameliorate
C[C@H]1[C@H](C)CC[C@]2(C(=O)O)CC[C@]3(C)C(=CC[C@@H]4[C@@]5(C)C[C@@H](O)[C@H](O)[C@@](C)(CO)[C@@H]5CC[C@]43C)[C@H]12 [asiatic acid],"elevated levels of brain ROS, TNF-alpha and IL-6","[2]; oral, 10 or 20 mg/kg, Chao et al 2015",can reduce
"CN1C(=O)CN=C(c2ccccc2)c2cc(Cl)ccc21 [diazepam, Diazepam]",locomotor activity,[3],significant reduction
same,step-through latency (anterograde amnesia),[4],significant anterograde amnesia
same,time of stay on the moving rotarod (muscle coordination),[5],significant reduction
CC(C)=CCC[C@](C)(O[C@@H]1O[C@H](CO)[C@@H](O)[C@H](O)[C@H]1O)[C@H]1CC[C@]2(C)[C@@H]1[C@H](O)C[C@@H]1[C@@]3(C)CC[C@H](O)C(C)(C)[C@@H]3[C@@H](O[C@@H]3O[C@H](CO)[C@@H](O)[C@H](O)[C@H]3O)C[C@]12C [ginsenoside Rg1],cognitive impairment and hippocampus senescence,"[2]; 20 mg/kg i.p., Zhu et al 2014",can prevent
